From patent publication US20210154372A1, “MEDICAL DEVICE WITH DRUG-ELUTING COATING AND INTERMEDIATE LAYER” (C.R. Bard, Inc., priority 2017, published 2021)

Tests used:
[1] = octanol/water; cited from earlier work
[2] = stability of additive with paclitaxel under ethylene oxide sterilization, heating and aging; conditions: reacted with paclitaxel
[3] = system: tissues at the target site; assay: drug absorption by tissue after 0.2-2 minute deployment of coated balloon; type: in vivo; conditions: coating with paclitaxel, after 0.2-2 minutes of deployment
[4] = BSA added; cited from earlier work
Serum albumin = conditions: cited from earlier work

COc1ccc(O)c(C(C)(C)C)c1 [Butylated hydroxyanisole]
log P [1]: 1.31

O=C(O)c1ccccc1 [benzoic acid]
stability under ethylene oxide sterilization, heating, and aging process [2]: not stable

O=C1O[C@H](CO)[C@@H](O)[C@H](O)[C@H]1O [gluconolactone]
drug absorption by tissue [3]: unexpectedly high

CC(=O)O[C@H]1C(=O)[C@@]2(C)[C@H]([C@H](OC(=O)c3ccccc3)[C@]3(O)C[C@H](OC(=O)[C@H](O)[C@@H](NC(=O)c4ccccc4)c4ccccc4)C(C)=C1C3(C)C)[C@]1(OC(C)=O)CO[C@@H]1C[C@@H]2O [paclitaxel]
increase of solubility in PBS with the addition of BSA [4]: over 20 fold

CO[C@H]1C[C@@H]2CC[C@@H](C)[C@@](O)(O2)C(=O)C(=O)N2CCCC[C@H]2C(=O)O[C@H]([C@H](C)C[C@@H]2CC[C@@H](O)[C@H](OC)C2)CC(=O)[C@H](C)/C=C(\C)[C@@H](O)[C@@H](OC)C(=O)[C@H](C)C[C@H](C)/C=C/C=C/C=C/1C [rapamycin]
protein bound (Serum albumin): 92% | share of protein binding that is to albumin (Serum albumin; primarily to albumin): 97%

O=C1O[C@H](CO)[C@@H](O)[C@H]1O [ribonic acid lactone]
drug absorption by tissue [3]: unexpectedly high

OC[C@@H](O)[C@@H](O)[C@H](O)[C@@H](O)CO [sorbitol]
log P [1]: −4.67

PEG-20 sorbitan monolaurate [Tween 20]
log P [1]: about 3.0
